Experimental data: patent EP1232756A1, “DRUGS, DRINKS OR FOODS” (Takara Shuzo Co, Ltd., priority 1999, dated 2001)
Marks after values point to notes of the source that are not given here.

What was measured:
Format in all cases: in vivo
female SD rat [1] = experiment: Agonistic (estrogenic) activity: immature rat uterine weight (Example 1(2)); settings: for Uterine weight / Ratio: substance alone; for Uterine weight: once a day for 3 days, mean ± standard error; for Ratio: uterine weight vs control group (100%), 3 days
Description: A 17-days old female SD rat (purchased from Japan SLC) was received together with its mother, weaned at 20 days of age, and subjected to experiments from the next day. Five ml per kg body weight of EGCG (Sigma) or bisphenol-A (hereinafter referred to as BisA, Tokyo Kasei Kogyo) suspended in peanut oil (Nacalai Tesque) was administered orally and forcibly. Peanut oil was administered to a control rat in a similar manner. Administration was carried out once a day for three successive days. The uterine removed 24 hours after the last administration was weighed. BisA or EGCG (80 or 800 mg/kg) was administered. […]

female SD rat [2] = experiment: Antagonistic (anti-estrogenic) activity of EGCG against bisphenol-A, immature rat uterine weight (Example 1(3)); settings: BisA 800 mg/kg + EGCG 800 mg/kg oral at the same time
Description: A 17-days old female SD rat (purchased from Japan SLC) was received together with its mother, weaned at 20 days of age, and subjected to experiments from the next day. Five ml per kg body weight of EGCG (Sigma) or bisphenol-A (hereinafter referred to as BisA, Tokyo Kasei Kogyo) suspended in peanut oil (Nacalai Tesque) was administered orally and forcibly. Peanut oil was administered to a control rat in a similar manner. Administration was carried out once a day for three successive days. The uterine removed 24 hours after the last administration was weighed. BisA (800 mg/kg) and EGCG (800 mg/kg) were administered at the same time.

female SD rat [3] = experiment: Dose dependency of anti-estrogenic activity of solution of EGCG in ethanol, rat uterine weight (Example 6); settings: for Uterine weight: 30 minutes before BisA; for Ratio: vs control (100%)
Description: (§1) A 16-days old female SD rat (Japan SLC) was purchased together with its mother, weaned at 19 days of age, and subjected to experiments from the next day. BisA was weighed such that it would be administered at 40 mg/kg and dissolved in a small volume of ethanol. Peanut oil was added thereto to result in a final ethanol concentration of 5%. The resulting mixture was subcutaneously or orally administered for three successive days. The uterine removed on the day after the third administration day was weighed. EGCG was dissolved by adding ethanol and water was then added thereto to adjust the final ethanol concentration to 10%. The solution was orally administered 30 minutes before the administration of BisA.

female SD rat [4] = experiment: Anti-estrogenic activity of solution of EGCG in ethanol, subcutaneous BisA, rat uterine weight (Example 5); settings: for Uterine weight / Ratio: 30 minutes before BisA; for Ratio: vs control (100%)
Description: as §1, with “subcutaneously” for “subcutaneously or orally”, “EGCG (200 mg/kg)” for “EGCG”, “10 or 0%.” for “10%.”

female SD rat [5] = experiment: Anti-estrogenic activity of solution of EGCG in ethanol against 4-nonylphenol, rat uterine weight (Example 3); settings: NP 50 mg/kg oral + EGCG 200 mg/kg oral in 10% ethanol
Description: A 16-days old female SD rat (Japan SLC) was purchased together with its mother, weaned at 19 days of age, and subjected to experiments from the next day.
4-Nonylphenol (hereinafter referred to as NP) was weighed such that it would be administered at 50 mg/kg and diluted by adding peanut oil thereto. The resulting mixture was orally administered for three successive days. The uterine removed on the day after the third administration day was weighed. EGCG was dissolved by adding ethanol and water was then added thereto to adjust the final ethanol concentration to 10%. The solution was orally administered 90 minutes before the administration of NP.

female SD rat [6] = experiment: Effect of ethanol concentration on anti-estrogenic activity of EGCG, rat uterine weight (Example 4); settings: for Uterine weight: 90 minutes before BisA; for Ratio: vs control (100%)
Description: as §1, with “subcutaneously” for “subcutaneously or orally”, “EGCG (200 mg/kg)” for “EGCG”, “10, 5, 1, 0.5 or 0%.” for “10%.”, “90” for “30”

female SD rat [7] = experiment: Anti-estrogenic activity of solution of EGCG in ethanol against bisphenol-A, rat uterine weight (Example 2); settings: for Uterine weight: 30 minutes before BisA; for Ratio: vs control (100%)
Description: A 17-days old female SD rat (purchased from Japan SLC) was received together with its mother, weaned at 20 days of age, and subjected to experiments from the next day. BisA was weighed such that it would be administered at 200 or 40 mg/kg and dissolved in a small volume of ethanol. Peanut oil was added thereto to result in a final ethanol concentration of 5%. The resulting mixture was orally administered for three successive days. The uterine removed on the next day was weighed. EGCG was dissolved by adding ethanol and water was then added thereto to adjust the final ethanol concentration to 10%. The solution was orally administered on the day before the administration of BisA and 30 minutes before each of the successive administrations of BisA.

[8] = BisA 40 mg/kg oral + EGCG 40 mg/kg oral in 10% ethanol
[9] = BisA 40 mg/kg oral + EGCG 100 mg/kg oral in 10% ethanol
[10] = BisA 40 mg/kg subcutaneous + EGCG 40 mg/kg oral in 10% ethanol
[11] = BisA 40 mg/kg subcutaneous + EGCG 100 mg/kg oral in 10% ethanol
[12] = BisA 40 mg/kg s.c. + EGCG 200 mg/kg oral in 0% ethanol
[13] = BisA 40 mg/kg s.c. + EGCG 200 mg/kg oral in 10% ethanol
[14] = BisA 40 mg/kg s.c. + EGCG 200 mg/kg oral in 0 % ethanol
[15] = BisA 40 mg/kg s.c. + EGCG 200 mg/kg oral in 0.5% ethanol
[16] = BisA 40 mg/kg s.c. + EGCG 200 mg/kg oral in 1 % ethanol
[17] = BisA 40 mg/kg s.c. + EGCG 200 mg/kg oral in 5 % ethanol
[18] = BisA 40 mg/kg s.c. + EGCG 200 mg/kg oral in 10 % ethanol
[19] = BisA 200 mg/kg oral + EGCG 100 mg/kg oral in 10% ethanol
[20] = BisA 200 mg/kg oral + EGCG 200 mg/kg oral in 10% ethanol

O=C(O[C@@H]1Cc2c(O)cc(O)cc2O[C@@H]1c1cc(O)c(O)c(O)c1)c1cc(O)c(O)c(O)c1 [EGCG, epigallocatechin gallate]
increased uterine weight (in words) (female SD rat [1]; EGCG alone, 80 or 800 mg/kg oral): did not result in increased uterine weight | Uterine weight (female SD rat [1]; 80 mg/kg oral in peanut oil): 42.2 ± 1.7 mg | Uterine weight (female SD rat [1]; 800 mg/kg oral in peanut oil): 39.3 ± 3.2 mg | Ratio (female SD rat [1]; 80 mg/kg oral): 104% | Ratio (female SD rat [1]; 800 mg/kg oral): 97% | Uterine weight (female SD rat [2]; in peanut oil, mean ± standard error): 43.0 ± 2.7 mg | Ratio (female SD rat [2]; vs control (100%)): 116% | Uterine weight (female SD rat [3]; [8]): 34.8 ± 2.8 mg | Uterine weight (female SD rat [3]; [9]): 33.0 ± 4.4 mg | Uterine weight (female SD rat [3]; [10]): 44.4 ± 1.5 mg | Uterine weight (female SD rat [3]; [11]): 39.6 ± 1.0 mg | Ratio (female SD rat [3]; [8]): 106% | Ratio (female SD rat [3]; [9]): 101** % | Ratio (female SD rat [3]; [10]): 136% | Ratio (female SD rat [3]; [11]): 121*** % | Uterine weight (female SD rat [4]; [12]): 50.9 ± 2.2 mg | Uterine weight (female SD rat [4]; [13]): 36.4 ± 1.4 mg | suppression of the increase in uterine weight (in words) (female SD rat [4]; BisA 40 mg/kg s.c. + EGCG 200 mg/kg oral without ethanol): the increase was not suppressed | Ratio (female SD rat [4]; [12]): 165% | Ratio (female SD rat [4]; [13]): 118% | Uterine weight (female SD rat [5]; 90 minutes before NP): 33.7 ± 1.9 mg | Ratio (female SD rat [5]; vs control (100%)): 109% | Uterine weight (female SD rat [6]; [14]): 43.3 ± 1.8 mg | Uterine weight (female SD rat [6]; [15]): 40.9 ± 1.8 mg | Uterine weight (female SD rat [6]; [16]): 40.1 ± 2.0 mg | Uterine weight (female SD rat [6]; [17]): 37.6 ± 1.8 mg | Uterine weight (female SD rat [6]; [18]): 37.0 ± 1.3 mg | Ratio (female SD rat [6]; [14]): 161% | Ratio (female SD rat [6]; [15]): 152% | Ratio (female SD rat [6]; [16]): 149% | Ratio (female SD rat [6]; [17]): 140% | Ratio (female SD rat [6]; [18]): 138% | Uterine weight (female SD rat [7]; [9]): 41.2 ± 2.2 mg | Uterine weight (female SD rat [7]; [19]): 47.4 ± 2.6 mg | Uterine weight (female SD rat [7]; [20]): 39.8 ± 4.5 mg | Ratio (female SD rat [7]; [9]): 95% | Ratio (female SD rat [7]; [19]): 109% | Ratio (female SD rat [7]; [20]): 92%
